From patent US7138543B2, “Thiolalkyl benzoic acid derivatives” (Guilford Pharmaceuticals Inc., priority 2001, dated 2006)

Experiments:
[1] = system: rats with unilaterally transected optic nerve; experiment: Optic nerve transection (optic nerve fiber counting); format: in vivo, Rattus norvegicus; conditions: for FIBER NUMBER: 10 mg/kg daily intraperitoneal
Procedure: (§1) All experiments complied with the Association for Research in Vision and Ophthalmology Statement for the Use of Animals in Ophthalmic and Vision Research. 82 male Brown Norway rats (Rattus norvegicus), each weighing approximately 250 gm, were treated using procedures approved by the Animal Care Committee of the Johns Hopkins University School of Medicine. The rats were housed with a 12 hour light/12 hour dark cycle and fed ad libitum.
OPTIC NERVE TRANSECTION: The optic nerve was transected unilaterally in 26 rats under intraperitoneal pentobarbital anesthesia. The conjunctiva was opened with scissors and the optic nerve exposed by traction on extraocular muscles. The transection was performed with microscissors 5 mm posterior to the globe, with specific attention to avoidance of injury to major ocular blood vessels. Immediately after transection, the retina was examined ophthalmoscopically to assure that the retinal arterial blood supply was not disrupted. The conjunctiva was closed with absorbable suture and the eye dressed with antibiotic ointment. Beginning on the day of transection, the rats were treated daily with intraperitoneal injections of either a vehicle (9 rats with 50 mM HEPES-buffered saline) or a NAALADase inhibitor (8 rats with 10 mg/kg of Compound A and 9 rats with 10 mg/kg of Compound B). 5 saline treated rats, 3 Compound A treated rats, and 4 Compound B treated rats were sacrificed at 2 weeks, and the remaining rats at 4 weeks, after transection.
(§2) OPTIC NERVE COUNTING: The rats were sacrificed by exsanguination under deep pentobarbital anesthesia. They were perfused through the heart with 2% paraformaldehyde/2% glutaraldehyde in 0.1 M phosphate buffer, pH 7.2, and the eyes with attached optic nerves were removed. A cross-section of the optic nerve from both experimental (glaucoma or transection) and control eyes was removed 1.5 mm posterior to the globe, 1 mm in thickness, and post-fixed in 2% osmium tetroxide in buffer. These were processed into epoxy resin, sectioned at 1 micron and stained with toluidine blue.
(§3) The area of the optic nerve cross-section was measured by outlining its outer border at 10× magnification on an image analysis system (Universal Imaging Corp., Westchester, Pa.) with Synsys digital camera and Metamorph software. Three area measurements were taken and the mean value was determined. To measure the density and fiber diameter distributions, images were captured with a 100× phase contrast objective from 10 different areas of each nerve. These were edited to eliminate non-neural objects and the size of each axon internal to the myelin sheath (its minimum diameter) and the density of axons/square mm were calculated for each image and nerve. The mean density was multiplied by total nerve area to yield fiber number for each nerve. The total fiber number in glaucoma or transection nerves was compared to the normal, fellow eye of each rat to yield a percent loss value. The number of axons counted among the 10 images was an approximately 20% sample of the 80–90,000 axons in normal rat nerves. The person measuring axon number was masked to the protocol conducted on the nerves.

[2] = system: transgenic HD mice of the N171-82Q strain; experiment: Huntington's disease transgenic mouse model: rotarod and locomotion; format: in vivo
Procedure: Neuroprotective Effect of NAALADase Inhibitors in Transgenic Mouse Model of Huntington's Disease Behavioral Testing (Rotarod) Transgenic HD mice of the […]-[…] strain and non-transgenic littermates were treated with NAALADase inhibitor Compound B (30 mg/kg) or a vehicle from 10 weeks of age. The mice were placed on a rotating rod (“rotarod”). The length of time at which the mouse fell off the rotarod was recorded as a measure of motor coordination. […] The treatment with Compound B had no effect on the rotarod performance of normal non-HD mice. The total distance traveled by the mice was also recorded as a measure of overall locomotion.

[3] = system: transgenic HD mice (N171-82Q); experiment: Huntington's disease transgenic mouse model: survival; format: in vivo
Procedure: The effects of Compound B and vehicle on the survival of transgenic HD mice (N171-82Q) were evaluated. Thirteen mice (six male and seven female) were assigned to the Compound B treatment group, and fourteen mice (six male and eight female) were assigned to the vehicle treatment group. Treatment was continued until all the mice died.

[4] = system: rats with unilateral elevation of intraocular pressure; experiment: Experimental rat glaucoma (IOP elevation, optic nerve fiber counting); format: in vivo; conditions: for FIBER NUMBER: 10 mg/kg daily intraperitoneal; for PERCENT DIFFERENCE in fiber number between glaucoma and normal eye: positive value indicates fewer fibers in the glaucoma eye
Procedure: Protective Effect of NAALADase Inhibitors in Experimental Rat Glaucoma
as §1
EXPERIMENTAL GLAUCOMA: Unilateral elevation of intraocular pressure (“IOP”) was produced in 56 rats by microinjection of hypertonic saline into episcleral veins, following procedures described in Morrison, J. et al., IOVS (March 1998) 39:526–531. Beginning on the day of IOP elevation, the rats were treated daily with intraperitoneal injections of either a vehicle (23 rats with 50 mM HEPES-buffered saline) or a NAALADase inhibitor (11 rats with 10 mg/kg of Compound A and 22 rats with 10 mg/kg of Compound B). 11 saline treated rats, 11 Compound A treated rats and 11 Compound B treated rats were sacrificed at 8 weeks, and the remaining rats at 12 weeks, after initial IOP elevation.
as §2, §3

STZ-diabetic rats [5] = experiment: Diabetic neuropathy in STZ model (motor and sensory nerve conduction velocity); format: in vivo
Procedure: In vivo Assay of NAALADase Inhibitors on Diabetic Neuropathy in STZ Model
Motor and sensory nerve conduction velocity was also measured in STZ-diabetic animals after 4, 8 and 12 weeks of treatment (see De Koning et al., supra, for a description of the experimental method). Briefly, stimulating needle electrodes were inserted close to the sciatic and tibial nerves with recording electrodes being placed subcutaneously over the distal foot muscles, in anesthetized rats.

BB/W diabetic rats [6] = experiment: Progression of neuropathic pain in BB/W model (withdrawal latency); format: in vivo; conditions: 10 mg/kg i.p. daily; vs diabetic vehicle-treated rats, from 4 weeks through six months of treatment, FIG. 11
Excerpt: In vivo Assay of NAALADase Inhibitors on Progression of Neuropathic Pain in BB/W Models
(§4) Male BB/W rats (BRI, Mass) spontaneously develop a cell mediated autoimmune destruction of pancreatic B cells, resulting in onset of insulin-dependent (Type I) diabetes (Awata, Guberski, Endocrinology (1995) 136(12):5731–5). […] This renders them valuable for experimental trials of new compounds for future treatments of this major disorder. In the present study, Compound A and Compound D were examined for their ability to alter the progression of diabetic neuropathy. The rats received daily injection of Compound A or Compound D (10 mg/kg i.p.) or vehicle, starting at the onset of diabetes (hyperglycemia) and up to 6 months thereafter. Another group of non-diabetic rats also receiving vehicle were tested. All animals were continuously monitored for body weight, urine volume, blood sugar and glycated haemoglobin. In the first month of the study, all animals were tested for thermal nociception in a Hargreaves apparatus, weekly. After the first month this was done biweekly and then monthly. The testing consists of directing an infrared heat source onto the dorsal surface of the rat hindpaw and noting the time taken for the animal to remove its paw (see Hargreaves et al., J. Biol. Chem. (1988) 263(36):19392–7 for a description of the experimental method). […]

STZ-diabetic rats [7] = experiment: Neuropathic pain in STZ model (Hargreaves thermal nociception); format: in vivo, Sprague-Dawley rats; conditions: 10 mg/kg i.p. daily, started 45 days post-STZ
Procedure: In vivo Assay of NAALADase Inhibitors on Neuropathic Pain in STZ Model
Male Sprague-Dawley rats (200–225 g) were rendered diabetic by intravenous administration of streptozotocin (“STZ”, 70 mg/kg in phosphate buffered saline). Diabetic animals were divided into five groups: one group receiving Compound A (10 mg/kg or 1 mg/kg), Compound D (10 mg/kg or 1 mg/kg) or vehicle. Another group of animals (non-STZ treated) served as non-diabetic controls. Drug/vehicle treatment was started in diabetic animals 45 days post-STZ administration. STZ-induced diabetic rats were tested for sensitivity to a heat source as soon as blood glucose levels rose to 320 mg/dl or above (30 days post STZ). The rats were then acclimated to a Hargreaves apparatus and thermal nociception was monitored using an infrared heat source directed into the dorsal surface of the hindpaw, and the time taken for the animal to remove its paw noted to the nearest 0.1 seconds (see Hargreaves et al., J. Biol. Chem. (1988) 263(36):19392–7 for a description of the experimental method). The intensity of the beam source was adjusted such that the mean latency for control animals (non-STZ treated) was approximately 10 seconds. Each animal was tested 8 times and the mean difference score (between mean non-diabetic control latency and mean diabetic latency) are graphically presented in FIGS. 7A and 7B.

STZ diabetic rats [8] = experiment: Reversal of diabetic neuropathy in STZ model, delayed dosing: thermal hyperalgesia; format: in vivo
Procedure: (§5) In vivo Assay of NAALADase Inhibitors—Reversal of Diabetic Neuropathy in STZ Model
(§6) General Method for STZ Model—Delayed Dosing
(§7) Rats (200–225 grams) were injected with STZ (70 mg/kg) into the tail vein. Diabetes (>350 mg/dl) was confirmed in all rats, 4 weeks after STZ administration. Rats were left untreated until 35–49 days after STZ. Compound D (1, 3, or 10 mg/kg), Compound E (10 mg/kg), or vehicle were dosed daily p.o. following confirmation of hyperalgesia and/or nerve conduction velocity deficits. In separate experiments, onset of treatment was delayed until 60 to 90 days after STZ administration. Nerve conduction velocity or withdrawal response to thermal stimulation of hind paws was measured at intervals, usually bi-weekly for thermal response and monthly for nerve conduction velocity.
Animals were acclimated to the apparatus for at least 5 min. An infra-red source was placed under below the plantar surface of the rat hind-paw. The intensity of the source was adjusted so that latency for normal rats was about 10 secs. Animals were tested for thermal response latency according to the method of Hargreaves et al (Pain 77–88, 1988). Each animal was tested 8 times (4 each hind limb) and the latency of response recorded automatically to nearest 0.1 sec. An average of the last 4 measurements for each paw was calculated (8 total measurements) and noted for each rat.

BB/W diabetic rats [9] = experiment: Nerve conduction velocity in BB/W model; format: in vivo; conditions: 10 mg/kg daily; vs diabetic vehicle controls, from 8 weeks to six months, FIG. 12
Excerpt: as §4, with “monthly.” for “monthly. The testing consists of directing an infrared heat source onto the dorsal surface of the rat hindpaw and noting the time taken for the animal to remove its paw (see Hargreaves et al., J. Biol. Chem. (1988) 263(36):19392–7 for a description of the experimental method).”
Nerve conduction velocity was also measured every two weeks through the first eight weeks of treatment and every month thereafter through to the six months of treatment (see De Koning et al., Peptides, Vol. 8, No. 3, pp. 415–22 (1987) for a description of the experimental method). […]

STZ diabetic rats [10] = experiment: Reversal of diabetic neuropathy in STZ model, delayed dosing: nerve conduction velocity; format: in vivo
Procedure: as §5, §6, §7
Nerve Conduction Velocity Measurements
Sensory and motor nerve conduction velocities were evaluated using the method of De Koning and Gispen (Peptides 8: 415–422, 1987). Electrophysiological evaluation was carried out within one hour of dosing. Animals were anesthetized with isoflurane and stimulating needle electrodes were inserted close to the sciatic nerve at the sciatic notch and the tibial nerve near the ankle. Recording electrodes were placed over the foot muscles. Stimuli were applied and responses recorded. Motor and sensory nerve conduction velocities were calculated by measuring the distance between the sciatic notch and ankle sites, and the latency between the M-wave and the H-reflex.

[11] = 2 weeks survival after transection
[12] = 4 weeks survival after transection

O=C(O)CCC(CCCS)C(=O)O (stereo not drawn) [Compound B, 2-(3-sulfanylpropyl)pentanedioic acid]
remaining axons relative to the saline-treated rats ([1]; 2 weeks after transection): twice | PERCENT DIFFERENCE in fiber number [1, 11]: 75.3 ± 14.8% | FIBER NUMBER [1, 11]: 19,550 ± 11,383 | PERCENT DIFFERENCE in fiber number [1, 12]: 93.4 ± 6.2% | FIBER NUMBER [1, 12]: 5,162 ± 5,017 | rotarod performance ([2]; normal non-HD mice, 30 mg/kg): no effect | rotarod performance (time on rotarod) ([2]; transgenic HD mice, 30 mg/kg from 10 weeks of age, vs vehicle, FIG. 33): stayed longer on the rotarod | survival time ([3]; female transgenic HD mice, vs vehicle, p-value=0.03, FIG. 37): significantly prolonged survival time | median survival time ([3]; transgenic HD mice, all, vehicle 158.5 days, p-value=0.07, FIG. 35): 184 days | FIBER NUMBER ([4]; 8 week group): 80785 ± 2121 | PERCENT DIFFERENCE in fiber number between glaucoma and normal eye ([4]; 8 week group): −0.82 ± 2.97% | FIBER NUMBER ([4]; 12 week group): 90504 ± 1718 | PERCENT DIFFERENCE in fiber number between glaucoma and normal eye ([4]; 12 week group): −3.21 ± 2.86%

O=C(O)CCC(CCS)C(=O)O (stereo not drawn) [Compound D, 2-(2-sulfanylethyl)pentanedioic acid]
treatment time at which increase of motor and sensory nerve conduction velocities was significant (STZ-diabetic rats [5]; 1 mg/kg dose): at the earlier time periods | motor and sensory nerve conduction velocities (STZ-diabetic rats [5]; either dose (10 mg/kg or 1 mg/kg), vs diabetic controls, FIGS. 10A and 10B): increased both motor and sensory nerve conduction velocities | withdrawal latency (BB/W diabetic rats [6]): longer withdrawal latencies | hyperalgesic response (withdrawal latency difference score) (STZ-diabetic rats [7]): completely reversed | neuropathic hyperalgesia (thermal response latency) (STZ diabetic rats [8]; daily p.o., treatment from 5 weeks post STZ, within two weeks of treatment, FIG. 22): reversed towards normal | neuropathic pain abnormalities (STZ diabetic rats [8]; lower doses (1 and 3 mg/kg) initiated after 7 weeks of STZ treatment, FIG. 25): Significant reduction in pain abnormalities | nerve conduction velocity (BB/W diabetic rats [9]): significantly less severe nerve conduction deficits | motor nerve conduction velocity (STZ diabetic rats [10]; daily p.o., within 8 weeks of dosing, persisted through 12 weeks, FIG. 23): reversed the motor nerve conduction velocity towards normal | motor nerve conduction (STZ diabetic rats [10]; lower doses (1 and 3 mg/kg), even 8 weeks after dosing, FIG. 27): remained unimproved | sensory nerve conduction (STZ diabetic rats [10]; lower doses (1 and 3 mg/kg), within 4 weeks of treatment, FIG. 26): significantly improved towards normal | sensory and motor nerve conduction velocity deficits (STZ diabetic rats [10]; untreated until 60 days after STZ treatment, external CRO, FIGS. 28 and 29): Partial reversal of both deficits
